Measurements published in patent publication US11014902B2, “MYC G-quadruplex stabilizing small molecules and their use” (The United States of America, as represented by the …, priority 2015, dated 2021).

What was measured:
[1] = test system: NCI-H23; experiment: NCI-60 cell growth (SRB); assay type: cell-based; conditions: NCI-H23, Non-Small Cell Lung Cancer; 10 μM, 48 hours
Protocol: (§1) This example illustrates that Compounds 1 and 23 can be used in inhibit the growth of c-Myc expressing cancer cell lines in vitro. The NCI-60 panel of cancer cell lines (see Shoemaker, Nat. Rev. Cancer, 6, 813-823, 2006, and dtp.cancer.gov/discovery_development/nci-60/) was assayed for cell growth in the presence of 10 μM Compound 1 or Compound 23 for 48 hours. At 48 hours, the assay was terminated by fixation with TCA and determination of relative cell counts by addition of Sulforhodamine B (SRB, see Alley et al., Cancer Research, 48: 589-601, 1988.). Growth percent was determined by comparison of SRB reading of a duplicate plate of cells taken at the time of compound addition to the SRB reading at the termination of the treatment. The following table provides a summary of the percent of growth of each cell line in the panel compared to control (no treatment), as well as the mean delta and range of percent growth compared to control across the panel of cell lines for each treatment condition.

[2] = test system: BT-549; experiment: NCI-60 cell growth (SRB); assay type: cell-based; conditions: BT-549, Breast Cancer; 10 μM, 48 hours
Protocol: as §1

[3] = test system: MALME-3M; experiment: NCI-60 cell growth (SRB); assay type: cell-based; conditions: Melanoma, 10 μM, 48 hours
Protocol: as §1

[4] = test system: M14; experiment: NCI-60 cell growth (SRB); assay type: cell-based; conditions: M14, Melanoma; 10 μM, 48 hours
Protocol: as §1

[5] = test system: NCI/ADR-RES; experiment: NCI-60 cell growth (SRB); assay type: cell-based; conditions: Ovarian Cancer, 10 μM, 48 hours
Protocol: as §1

[6] = test system: LOX IMVI; experiment: NCI-60 cell growth (SRB); assay type: cell-based; conditions: Melanoma, 10 μM, 48 hours
Protocol: as §1

[7] = test system: UO-31; experiment: NCI-60 cell growth (SRB); assay type: cell-based; conditions: UO-31, Renal Cancer; 10 μM, 48 hours
Protocol: as §1

[8] = test system: CCRF-CEM; experiment: NCI-60 cell growth (SRB); assay type: cell-based; conditions: Leukemia, 10 μM, 48 hours
Protocol: as §1

[9] = test system: HT29; experiment: NCI-60 cell growth (SRB); assay type: cell-based; conditions: HT29, Colon Cancer; 10 μM, 48 hours
Protocol: as §1

[10] = test system: UACC-62; experiment: NCI-60 cell growth (SRB); assay type: cell-based; conditions: UACC-62, Melanoma; 10 μM, 48 hours
Protocol: as §1

[11] = test system: UACC-257; experiment: NCI-60 cell growth (SRB); assay type: cell-based; conditions: UACC-257, Melanoma; 10 μM, 48 hours
Protocol: as §1

[12] = test system: SK-OV-3; experiment: NCI-60 cell growth (SRB); assay type: cell-based; conditions: SK-OV-3, Ovarian Cancer; 10 μM, 48 hours
Protocol: as §1

[13] = test system: IGROV1; experiment: NCI-60 cell growth (SRB); assay type: cell-based; conditions: IGROV1, Ovarian Cancer; 10 μM, 48 hours
Protocol: as §1

[14] = test system: MDA-MB-468; experiment: NCI-60 cell growth (SRB); assay type: cell-based; conditions: MDA-MB-468, Breast Cancer; 10 μM, 48 hours
Protocol: as §1

[15] = test system: K-562; experiment: NCI-60 cell growth (SRB); assay type: cell-based; conditions: K-562, Leukemia; 10 μM, 48 hours
Protocol: as §1

[16] = test system: HCT-116; experiment: NCI-60 cell growth (SRB); assay type: cell-based; conditions: HCT-116, Colon Cancer; 10 μM, 48 hours
Protocol: as §1

[17] = test system: MDA-MB-435; experiment: NCI-60 cell growth (SRB); assay type: cell-based; conditions: MDA-MB-435, Melanoma; 10 μM, 48 hours
Protocol: as §1

[18] = test system: HCT-15; experiment: NCI-60 cell growth (SRB); assay type: cell-based; conditions: HCT-15, Colon Cancer; 10 μM, 48 hours
Protocol: as §1

[19] = test system: U251; experiment: NCI-60 cell growth (SRB); assay type: cell-based; conditions: U251, CNS Cancer; 10 μM, 48 hours
Protocol: as §1

[20] = test system: MOLT-4; experiment: NCI-60 cell growth (SRB); assay type: cell-based; conditions: MOLT-4, Leukemia; 10 μM, 48 hours
Protocol: as §1

[21] = test system: A549/ATCC; experiment: NCI-60 cell growth (SRB); assay type: cell-based; conditions: Non-Small Cell Lung Cancer, 10 μM, 48 hours
Protocol: as §1

[22] = test system: MYC expression in L363 cells; experiment: Gene expression analysis (Nanostring, qPCR), MYC; assay type: cell-based, human; conditions: for c-Myc expression (qPCR): L363 cells
Protocol: Gene expression analysis was performed on a panel of 770 cancer-associated genes in a multiplexed (nanostring) transcriptional assay. In addition to c-MYC itself, several c-Myc target genes were included in the panel, as were a number of other quadruplex-driven genes. […] Additionally, a third data set was collected comparing Compound 1 treatment to JQ-1 (a BET-bromodomain inhibitor) and quarfloxin (another quadruplex-binding small molecule).
The effects of Compound 1 on a number of known quadruplex-driven genes in the panel were examined further (FIG. 6). Expression levels of MYC, RB1, VEGFA, KRAS, and HIF1α, all of which are reported to be under the control of promoter G4s, and are expressed in L363 cells, were included in the panel of genes evaluated by Nanostring as discussed above. […] These changes in gene expression are in line with biophysical measurements of compound affinity. Corresponding data showing similar results is presented for Compounds 1 and 23 in FIGS. 14A and 14B. […] These observations further highlight the ability of Compound 1 and Compound 23 to specifically target the expression of c-Myc and related pathways.
The phenotype for c-MYC genetic knockdown in multiple myeloma was achieved through lentiviral transduction of shRNA for c-MYC, derived from the spinoculation of 293T cells and plasmids grown in STBL3 E. coli, and isolated with the Qiagen Plasmid Midi Kit. Aliquots of the plasmids were generously provided by Art Shaffer. RNA of treated myeloma cells at designated time points was isolated with the Qiagen RNeasy kit, and used with the nCounter Human Cancer Reference Kit (NanoString Technologies), surveying changes in expression for […] cancer-related human genes and 6 reference genes. Quantitative changes in expression were analyzed and grouped in the form of a heat map using the programming language, R. All other quantitative statistical packing was performed in GraphPad Prism.

[23] = test system: c-MYC expression in L363 cells; experiment: Inhibition of c-MYC expression in L363 cells (Peggy); assay type: cell-based, human; conditions: Homo sapiens, L-363, L363 cells, at 10 μM; read-out: Peggy (% c-Myc expression compared to untreated)
Source text: FIG. 10 illustrates an exemplary procedure for generating analogs of Compound 1. The amine group of Compound 1 can be varied in reductive aminations to provide additional analogs. […] The table also provides an indication of an exemplary commercial source for the compounds, or (if applicable) an indication that the compound is new.

[24] = 48 hours, 10 μM BRACO-19, 10 μM Compound 1, 7.5 μM Compound 23

Question: Which “Growth Percent” value [1] does the source give for `Cc1oc2ccc(O)c(CN3CCCCCC3)c2c1C(=O)Nc1ccc(C(F)(F)F)cc1` [Compound 23] here?
Answer: 69.93%

Question: What about the “Growth Percent” value [2] of the same molecule?
Answer: 78.51%

Question: What about the “Growth Percent” value [3] of the same molecule?
Answer: 49.92%

Question: And the “Growth Percent” value [4]?
Answer: 58.14%

Question: What about the “Growth Percent” value [5] of the same molecule?
Answer: 53.65%

Question: And the “Growth Percent” value [6]?
Answer: 39.15%

Question: And the “Growth Percent” value [7]?
Answer: 40.69%

Question: And the “Growth Percent” value [8]?
Answer: 65.23%

Question: What about the “Growth Percent” value [9] of the same molecule?
Answer: 80.45%

Question: What about the “Growth Percent” value [10] of the same molecule?
Answer: 67.27%

Question: And the “Growth Percent” value [11]?
Answer: 82.00%

Question: What about the “Growth Percent” value [12] of the same molecule?
Answer: 76.35%

Question: And the “Growth Percent” value [13]?
Answer: 54.25%

Question: And the “Growth Percent” value [14]?
Answer: 5.74%

Question: And the “Growth Percent” value [15]?
Answer: 29.63%

Question: And the “Growth Percent” value [16]?
Answer: 32.68%

Question: What about the “Growth Percent” value [17] of the same molecule?
Answer: 58.22%

Question: What about the “Growth Percent” value [18] of the same molecule?
Answer: 45.06%

Question: What about the “Growth Percent” value [19] of the same molecule?
Answer: 55.07%

Question: And the “Growth Percent” value [20]?
Answer: 64.31%

Question: What about the “Growth Percent” value [21] of the same molecule?
Answer: 61.22%

Question: What about the “c-Myc expression (qPCR)” value ([22]; 5 μM, 24 or 48 hours) of the same molecule?
Answer: reduced c-Myc expression

Question: What about the “c-Myc expression (qPCR)” value [22, 24] of the same molecule?
Answer: reduced c-Myc expression

Question: What about the activity at 10 µM [23] of the same molecule?
Answer: 0.44%

Question: For `Cc1ccc(NC(=O)c2c(C)oc3ccc(O)c(CN4CCCCCC4)c23)cc1` [Compound 1], which “Growth Percent” value [1] is on record?
Answer: 90.23%

Question: And the “Growth Percent” value [2]?
Answer: 92.88%

Question: What about the “Growth Percent” value [3] of the same molecule?
Answer: 107.60%

Question: What about the “Growth Percent” value [4] of the same molecule?
Answer: 85.90%

Question: And the “Growth Percent” value [5]?
Answer: 89.34%

Question: What about the “Growth Percent” value [6] of the same molecule?
Answer: 88.87%

Question: What about the “Growth Percent” value [7] of the same molecule?
Answer: 62.74%

Question: What about the “Growth Percent” value [8] of the same molecule?
Answer: 87.67%

Question: And the “Growth Percent” value [9]?
Answer: 100.25%

Question: And the “Growth Percent” value [10]?
Answer: 102.82%

Question: And the “Growth Percent” value [11]?
Answer: 112.11%

Question: And the “Growth Percent” value [12]?
Answer: 100.26%

Question: What about the “Growth Percent” value [13] of the same molecule?
Answer: 81.22%

Question: And the “Growth Percent” value [14]?
Answer: 73.62%

Question: And the “Growth Percent” value [15]?
Answer: 75.93%

Question: And the “Growth Percent” value [16]?
Answer: 64.67%

Question: What about the “Growth Percent” value [17] of the same molecule?
Answer: 95.94%

Question: And the “Growth Percent” value [18]?
Answer: 83.45%

Question: What about the “Growth Percent” value [19] of the same molecule?
Answer: 88.66%

Question: What about the “Growth Percent” value [20] of the same molecule?
Answer: 92.81%

Question: And the “Growth Percent” value [21]?
Answer: 85.87%

Question: What about the “MYC expression (nanostring)” value ([22]; 10 μM, 2 h to 48 h) of the same molecule?
Answer: substantially reduced

Question: What about the “MYC expression (qPCR)” value ([22]; 5, 10 or 12.5 μM, 48 hours) of the same molecule?
Answer: greatly reduced

Question: What about the “c-Myc expression (qPCR)” value [22, 24] of the same molecule?
Answer: reduced c-Myc expression

Question: What about the activity at 10 µM [23] of the same molecule?
Answer: 50%
